The record followed here is paper PMC5750651, “Disposition, Metabolism and Histone Deacetylase and Acetyltransferase Inhibition Activity of Tetrahydrocurcumin and Other Curcuminoids” (Pharmaceutics, 2017).

The term IC50 denotes the concentration needed to halve the response being measured.

Read-outs that look alike come from different tables or passages of the source.

For one data set, the target named is T1, COX-2 (Homo sapiens, UniProt P35354).
T1 construct: purchased Cayman Chemical 560131
T1 sequence (P35354 18-604): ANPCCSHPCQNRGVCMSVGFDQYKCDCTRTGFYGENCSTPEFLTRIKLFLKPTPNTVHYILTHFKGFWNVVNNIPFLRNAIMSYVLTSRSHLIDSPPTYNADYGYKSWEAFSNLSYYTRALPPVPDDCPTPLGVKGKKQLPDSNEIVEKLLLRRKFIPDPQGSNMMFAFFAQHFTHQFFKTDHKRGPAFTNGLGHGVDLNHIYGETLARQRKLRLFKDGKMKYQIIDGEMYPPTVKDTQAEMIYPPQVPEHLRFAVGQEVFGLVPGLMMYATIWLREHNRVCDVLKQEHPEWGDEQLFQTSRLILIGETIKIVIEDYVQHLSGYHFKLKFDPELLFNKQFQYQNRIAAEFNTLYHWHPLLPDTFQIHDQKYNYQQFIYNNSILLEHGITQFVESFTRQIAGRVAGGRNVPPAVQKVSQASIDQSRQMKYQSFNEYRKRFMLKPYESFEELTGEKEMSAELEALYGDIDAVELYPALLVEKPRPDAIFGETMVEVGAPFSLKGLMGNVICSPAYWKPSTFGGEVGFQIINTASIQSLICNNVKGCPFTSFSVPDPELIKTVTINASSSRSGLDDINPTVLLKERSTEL
Kind of data set: COX inhibitor screening assay kit, COX-2. The class given is biochemical. To be noted: for COX-2/COX-1 IC50 ratio: COX-2 IC50 divided by COX-1 IC50.

The target of the next data set is T2, CYP1A2 (Homo sapiens, UniProt P05177).
T2 sequence (P05177 1-516): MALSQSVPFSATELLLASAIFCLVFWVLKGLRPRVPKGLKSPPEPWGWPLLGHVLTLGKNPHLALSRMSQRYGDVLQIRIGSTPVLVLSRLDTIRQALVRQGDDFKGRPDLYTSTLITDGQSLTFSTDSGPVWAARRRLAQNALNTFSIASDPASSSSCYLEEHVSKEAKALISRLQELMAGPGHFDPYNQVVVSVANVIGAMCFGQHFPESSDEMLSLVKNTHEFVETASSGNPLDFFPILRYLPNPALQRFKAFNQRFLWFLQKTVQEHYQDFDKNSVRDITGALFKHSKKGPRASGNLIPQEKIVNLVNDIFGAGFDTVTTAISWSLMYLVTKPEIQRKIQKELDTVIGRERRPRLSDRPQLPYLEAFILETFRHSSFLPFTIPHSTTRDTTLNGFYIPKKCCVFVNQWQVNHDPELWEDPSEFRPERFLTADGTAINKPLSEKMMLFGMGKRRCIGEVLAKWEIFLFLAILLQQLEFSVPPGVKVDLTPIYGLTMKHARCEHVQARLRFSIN
Kind of data set: Vivid CYP450 screening kit, CYP1A2. Conditions: 0.01-100 μM. Here is the method: CYP2C9, CYP3A4, CYP1A2 and CYP2D6 assays were performed to assess metabolism and inhibition of human P450 isozymes involved using Vivid® CYP450 screening kits and CYP450 BACULOSOMES® Plus Reagents. CYP450 BACULOSOMES® Plus Reagents express only one CYP450 enzyme, preventing metabolism by other CYP450s. For CYP2C9, the substrate was BOMF and the positive control inhibitor sulfaphenazole; for CYP3A4, DBOMF was the substrate and ketoconazole the positive control inhibitor; for CYP1A2, the substrate was EOMCC and the positive control inhibitor naphthoflavone; for CYP2D6, the substrate was EOMCC and the positive control inhibitor quinidine. The assays were performed using the excitation and emission wavelengths recommended by the manufacturer. […] The plate was incubated for 10 min at room temperature (25 ± 1 °C) on a plate shaker. Then, 10 μL of Vivid® Substrate was added to each well to start the reaction. […] The assay was done in triplicate. The reading was performed at 1 min intervals for 60 min. Inhibition was calculated as (1 − (X − B/A − B)) × 100%, where X was the average of compound fluorescence, A was the average of solvent control and B was the average of inhibition in the presence of positive inhibitor control. The percent inhibition was calculated relative to a fixed concentration of the positive control. […]

Data set [1] concerns TNF-α release in Sup-T1 cells. Kind of data set: Cellular inflammatory cytokine release assay (TNF-α ELISA). The format is cell-based, human. To be noted: Sup-T1 cells, 5, 10, 50 and 100 μM, versus no-treatment control. Here is the method: Cell culture supernatant was collected and used to determine released TNF-α using the Human TNF-alpha DuoSet ELISA kit (DY210, R & D systems, Minneapolis, MN, USA) following the standard manufacturer’s protocol, optimized using recombinant TNF-α. […] The data were analyzed using SigmaPlot 12.2 (Systat Software Inc., San Jose, CA, USA).
A general note: ELISA stands for enzyme-linked immunosorbent assay.

The next data set has as its target T3, PCAF (Homo sapiens, UniProt Q92831).
T3 construct: purchased Cayman 10006515
Kind of data set: PCAF inhibitor screening assay kit (fluorescence). The class given is biochemical. Here is the method:
Curcuminoids were tested for direct HDAC1 and PCAF inhibitory activity using the fluorescent-based HDAC1 or PCAF inhibitor screening assay kit ((HDAC1) 10011564, (PCAF) 10006515, Cayman, Ann Arbor, MI, USA) according to manufacturer’s instructions.
Data for the PCAF and HDAC1 inhibition and viability assays were used to derive percent changes based on no treatment controls. Each of three data sets were then fit to a 4-parameter logistic regression using SigmaPlot 12.2 to derive IC50 values, which were then used to determine the mean and SD.

T3 sequence (Q92831 492-658 limits assumed): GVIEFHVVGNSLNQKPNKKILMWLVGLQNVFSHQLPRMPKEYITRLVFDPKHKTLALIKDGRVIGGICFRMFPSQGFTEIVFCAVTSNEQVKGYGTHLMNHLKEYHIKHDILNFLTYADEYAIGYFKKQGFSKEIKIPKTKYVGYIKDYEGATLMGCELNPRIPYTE

As to `COc1cc(/C=C/C(=O)COC(=O)/C=C/c2ccc(O)c(OC)c2)ccc1O` [Calebin-A, calebin-A], the “COX-2/COX-1 IC50 ratio” value at COX-2 was “around 1”. In addition, the half-maximal inhibitory concentration (IC50) on COX-2 (mean ± SD, read-out: COX-2 IC50) is 784 ± 2200 µM; on PCAF (mean ± SD), 200 ± 31 µM. The “CYP1A2 inhibition (in words)” value at CYP1A2 is “did not show a consistent dose-response inhibition”. The “change in TNF-α concentration (in words)” value in data set [1] was “no dose-response change”. At PCAF (ratio of PCAF IC50), the “fold less potent than curcumin, PCAF inhibition” value turned out to be 6 fold.
Turning to `COc1cc(CCC(=O)CC(=O)CCc2ccc(O)c(OC)c2)ccc1O` [THC, tetrahydrocurcumin], on COX-2, the IC50 was determined as 1350 ± 3640 µM and the “COX-2/COX-1 IC50 ratio” value was “around 1”. Moreover, at CYP1A2, the “CYP1A2 inhibition (in words)” value was “did not show a consistent dose-response inhibition”. Moreover, the “change in TNF-α concentration (in words)” value in data set [1] is on record as “no dose-response change”. Moreover, the “PCAF inhibition (in words)” value on PCAF (0.1-250 μg/mL) was “no inhibitory activity”.
